The source of these data is patent US20140066385A1, “METHOD FOR TREATING CANCER BY COMBINED USE OF DRUGS” (Astellas Pharma Inc., priority 2011, published 2014).

Molecules are shown by their SMILES.

Test [1] deals with human breast cancer (MDA-MB-231). The experiment in a line: Example 6: FK330 with paclitaxel in MDA-MB-231 tumor-bearing mice. Format: in vivo, nude mice. The following applies: FK330 100 mg/kg bid p.o. + paclitaxel 10 mg/kg/day i.v. (4 days each cycle), P<0.01. The procedure: (§1) The dose of FK330 is expressed in terms of the weight of a simple substance (non-hydrate). Paclitaxel was purchased from LC Laboratories, Inc. (Woburn, Mass., USA), and was used as paclitaxel.
(§2) FK330 was suspended (20 mg/mL) in a 0.5% aqueous methyl cellulose solution (0.5% MC), and was orally administered. Paclitaxel was prepared into a stock solution at 10 mg/mL with an ethanol/cremophor solution (mixed at 1:1), and then the stock solution was diluted to 1 mg/mL with physiological saline for injection (Otsuka Pharmaceutical Group) immediately before administration and was intravenously administered through the tail vein.
Human breast cancer-derived MDA-MB-231 (HTB-26) was obtained from American Type Culture Collection (VA, USA). […]
(§3) The body weight and the tumor diameter, determined by using a digital caliper, were measured twice a week. The tumor volume was calculated from the calculation formula for ellipsoid volume of (major axis×[minor axis]^2×0.5).
The results are expressed as the mean value (Mean)±standard error (SEM). […] Using the actual measured values of the tumor volume at each measurement time points, an unpaired statistical test (Student's t-test) of the difference between two groups was carried out between a single administration group and a combined use group. […]

In test [2] the test system is human hormone-resistant prostatic cancer (PC-3). The experiment in a line: Example 9: FK330 with paclitaxel in PC-3 tumor-bearing mice. Format: in vivo, nude mice. The following applies: FK330 100 mg/kg bid p.o. + paclitaxel 10 mg/kg/day i.v. multicycle. As for the experimental part:
as §1, §2
Human hormone-resistant prostatic cancer-derived PC-3 (CRL-1435) was obtained from American Type Culture Collection (VA, USA). […]
as §3
The results are expressed as the mean value (Mean)±standard error (SEM). […] Using the actual measured values of the tumor volume at each measurement time point, an unpaired statistical test (Student's t-test) of the difference between two groups was carried out between a single administration group and a combination use group. […]

`O=C(/C=C/c1ccc(Cl)cc1)N[C@@H](Cc1ccccn1)C(=O)NCC(=O)N1CCC(Oc2cc(C(F)(F)F)ncn2)CC1` [FK330, N^2-[(2E)-3-(4-chlorophenyl)-2-propenoyl]-N-[2-oxo-2-(4-{[6-(trifluoromethyl)pyrimidin-4-yl]oxy}piperidin-1-yl)ethyl]-3-pyridin-2-yl-L-alaninamide]: the “tumor volume reduction ratio compared with the paclitaxel-only group” value in test [1] (Day 28) is reported as 59.6%; in test [1] (Day 66) it was 82.8%; in test [2] (Day 30, P<0.05), 63.1%; in test [2] (Day 55, P<0.001), 72.1%.
